Measured values as given in ChEMBL document CHEMBL1287695, “Cholesterol-derived novel anti-apoptotic agents on the structural basis of ginsenoside Rk1” (Bioorg Med Chem Lett, 2010).
Active and inactive are the calls of the source. No cut-off for these calls is given here.

How the values were obtained:
Type in all cases: functional, cell-based
Conditions in all cases: Homo sapiens
HUVEC [1] = test: Antiapoptotic activity against HUVEC cells at 5 ug/ml after 24 hrs by MTT calorimetric assay
HUVEC [2] = test: Antiapoptotic activity against HUVEC cells at 5 ug/ml after 48 hrs by MTT calorimetric assay
HUVEC [3] = test: Antiapoptotic activity against HUVEC cells at 10 ug/ml after 24 hrs by MTT calorimetric assay
HUVEC [4] = test: Antiapoptotic activity against HUVEC cells at 10 ug/ml after 48 hrs by MTT calorimetric assay
HREC = test: Antiapoptotic activity against HREC cells assessed as cell viability after 48 hrs
HUVEC [5] = test: Antiapoptotic activity against HUVEC cells assessed as inhibition of DNA condensation and fragmentation after 48 hrs by TUNEL assay
HUVEC [6] = test: Antiapoptotic activity against HUVEC cells assessed as inhibition of DNA condensation and fragmentation after 48 hrs by DAPI staining

Row | Structure (SMILES) | Activity (HUVEC [1]) | Activity (HUVEC [2]) | Activity (HUVEC [3]) | Activity (HUVEC [4]) | Activity (HREC) | Activity (HUVEC [5]) | Activity (HUVEC [6])
1 | CC(C)CCC[C@@H](C)[C@H]1CC[C@H]2[C@@H]3CC=C4C[C@@H](O[C@@H]5O[C@H](CO)[C@@H](O)[C@H](O)[C@H]5O)CC[C@]4(C)[C@H]3CC[C@]12C | inactive | inactive | inactive | inactive | – | – | –
2 | CC(C)CCC[C@@H](C)[C@H]1CC[C@H]2[C@@H]3CC=C4C[C@@H](Oc5ccc6ccccc6c5)CC[C@]4(C)[C@H]3CC[C@]12C | Active | Active | – | – | – | – | –
3 | CC(C)CCC[C@@H](C)[C@H]1CC[C@H]2[C@@H]3CC=C4C[C@@H](O[C@H]5CCCCO5)CC[C@]4(C)[C@H]3CC[C@]12C | Active | Active | Active | Active | Active | Active | Active
4 | CC(C)CCC[C@@H](C)[C@H]1CC[C@H]2[C@@H]3CC=C4C[C@@H](O[C@H]5C[C@@H](O)[C@H](O)[C@@H](CO)O5)CC[C@]4(C)[C@H]3CC[C@]12C | Active | Active | Active | Active | – | – | –
5 | C=C(CCC=C(C)C)[C@H]1CC[C@]2(C)[C@@H]1[C@H](O)C[C@@H]1[C@@]3(C)CC[C@H](O[C@@H]4O[C@H](CO)[C@@H](O)[C@H](O)[C@H]4O[C@@H]4O[C@H](CO)[C@@H](O)[C@H](O)[C@H]4O)C(C)(C)[C@@H]3CC[C@]12C | Active | Active | Active | Active | – | – | –
6 | COC[C@H]1O[C@@H](O[C@H]2CC[C@@]3(C)C(=CC[C@H]4[C@@H]5CC[C@H]([C@H](C)CCCC(C)C)[C@@]5(C)CC[C@@H]43)C2)C=C[C@@H]1OC | Active | Active | Active | Active | – | – | –
7 | COCCOCO[C@H]1CC[C@@]2(C)C(=CC[C@H]3[C@@H]4CC[C@H]([C@H](C)CCCC(C)C)[C@@]4(C)CC[C@@H]32)C1 | Active | Active | – | – | – | – | –
8 | CC(=O)OC[C@H]1O[C@@H](O[C@H]2CC[C@@]3(C)C(=CC[C@H]4[C@@H]5CC[C@H]([C@H](C)CCCC(C)C)[C@@]5(C)CC[C@@H]43)C2)C=C[C@@H]1OC(C)=O | Active | Active | Active | Active | Active | Active | Active
9 | COC[C@H]1O[C@@H](O[C@H]2CC[C@@]3(C)C(=CC[C@H]4[C@@H]5CC[C@H]([C@H](C)CCCC(C)C)[C@@]5(C)CC[C@@H]43)C2)C[C@@H](OC)[C@@H]1OC | inactive | inactive | inactive | inactive | – | – | –
10 | CC(C)CCC[C@@H](C)[C@H]1CC[C@H]2[C@@H]3CC=C4C[C@@H](OC/C=C/CO)CC[C@]4(C)[C@H]3CC[C@]12C | Active | Active | – | – | – | – | –
11 | C=CCO[C@H]1CC[C@@]2(C)C(=CC[C@H]3[C@@H]4CC[C@H]([C@H](C)CCCC(C)C)[C@@]4(C)CC[C@@H]32)C1 | Active | Active | – | – | – | – | –
12 | CC(C)CCC[C@@H](C)[C@H]1CC[C@H]2[C@@H]3CC=C4C[C@@H](O[C@H]5C=C[C@H](O)[C@@H](CO)O5)CC[C@]4(C)[C@H]3CC[C@]12C | inactive | inactive | inactive | inactive | – | – | –
